Data as given in patent EP4477653A1 (Perha Pharmaceuticals, priority 2023, dated 2024).

These compounds were tested against T1, human recombinant A3AR (expressed in HEK-293 cells) (Homo sapiens, UniProt P0DMS8) (assay: Adenosine receptors antagonism assay (Eurofins), [125I]-AB-MECA radioligand competition). Settings: [125I]-AB-MECA 0.15 nM, r.t., 120 min; IC50 from dose-response curves; read-out: Potency Class A3AR.
T1 construct: host or cells: HEK-293 cells
T1 sequence (P0DMS8 1-318): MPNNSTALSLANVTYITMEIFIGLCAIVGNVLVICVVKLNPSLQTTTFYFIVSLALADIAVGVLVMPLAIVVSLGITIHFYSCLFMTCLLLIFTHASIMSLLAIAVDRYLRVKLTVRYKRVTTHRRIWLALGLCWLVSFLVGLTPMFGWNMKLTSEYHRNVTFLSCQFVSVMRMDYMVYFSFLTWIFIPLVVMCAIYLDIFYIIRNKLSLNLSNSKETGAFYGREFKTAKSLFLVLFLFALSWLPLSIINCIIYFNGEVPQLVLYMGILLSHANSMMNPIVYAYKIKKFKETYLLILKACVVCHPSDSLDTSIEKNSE
Assay type: binding
Experimental: Assays were carried out at r.t. for 120 min. Compounds were initially tested at three concentrations (0.01, 0.1, 1 µM). […] IC50 values, which is the concentration causing a half-maximal inhibition of control specific binding, and Hill coefficients (nH) were determined by non-linear regression analysis of the competition curves generated with mean replicate values using Hill equation curve fitting. The inhibition constants (Ki) were calculated using the Cheng Prusoff equation.

IC50 | SMILES
< 1 nM | CCC(CC)Nc1cc(Nc2cccc(OC)n2)c2nnc(C(C)C)n2n1 [compound 154, 3-isopropyl-N8-(6-methoxypyridin-2-yl)-N6-(pentan-3-yl)-[1,2,4]triazolo[4,3-b]pyridazine-6,8-diamine]
100 to 1000 nM | CC(C)c1nnc2c(NCc3ccccc3)cc(NCCC(=O)N(C)C)nn12 [compound 27, 3-[[8-(benzylamino)-3-isopropyl-[1,2,4]triazolo[4,3-b]pyridazin-6-yl]amino]-N,N-dimethyl-propanamide]
1 to 10 nM | c1ccc(CNc2cc(NCc3ccsc3)nn3c(C4CC4)nnc23)nc1 [compound 218, 3-cyclopropyl-N8-(pyridin-2-ylmethyl)-N6-(thiophen-3-ylmethyl)-[1,2,4]triazolo[4,3-b]pyridazine-6,8-diamine]
10 to 100 nM | CCC(CC)Nc1cc(NC(=O)c2ccccc2)c2nnc(C(C)C)n2n1 [compound 96, N-[6-(1-ethylpropylamino)-3-isopropyl-[1,2,4]triazolo[4,3-b]pyridazin-8-yl]benzamide]
100 to 1000 nM | CC(C)c1nnc2c(NCc3ccccc3)cc(NCCO)nn12 [compound 11, 2-[[8-(benzylamino)-3-isopropyl-[1,2,4]triazolo[4,3-b]pyridazin-6-yl]amino]ethanol]
< 1 nM | CCC(CC)Nc1cc(Nc2cnccn2)c2nnc(C(C)C)n2n1 [compound 153, 3-isopropyl-N6-(pentan-3-yl)-N8-(pyrazin-2-yl)-[1,2,4]triazolo[4,3-b]pyridazine-6,8-diamine]
10 to 100 nM | CC(C)c1nnc2c(NCc3ccccc3)cc(N[C@@H]3CCCOC3)nn12 [compound 21, N8-benzyl-3-isopropyl-N6-[(3R)-tetrahydropyran-3-yl]-[1,2,4]triazolo[4,3-b]pyridazine-6,8-diamine]
10 to 100 nM | CC[C@H](CO)Nc1cc(NCCc2ccccn2)c2nnc(C3CC3)n2n1 [compound 185, (2R)-2-[[3-cyclopropyl-8-[2-(2-pyridyl)ethylamino]-[1,2,4]triazolo[4,3-b]pyridazin-6-yl]amino]butan-1-ol]
< 1 nM | CCC(CC)Nc1cc(Nc2cccnc2)c2nnc(C(C)C)n2n1 [compound 47, N6-(1-ethylpropyl)-3-isopropyl-N8-(3-pyridyl)-[1,2,4]triazolo[4,3-b]pyridazine-6,8-diamine]
1 to 10 nM | CC(C)c1nnc2c(NCc3ccccn3)cc(NC(C)(C)C)nn12 [compound 52, N6-tert-butyl-3-isopropyl-N8-(2-pyridylmethyl)-[1,2,4]triazolo[4,3-b]pyridazine-6,8-diamine]
10 to 100 nM | CCC(CC)Nc1cc(NCc2ccccn2)c2nnc(C(C)(C)C)n2n1 [compound 61, 3-tert-butyl-N6-(1-ethylpropyl)-N8-(2-pyridylmethyl)-[1,2,4]triazolo[4,3-b]pyridazine-6,8-diamine]
< 1 nM | CCC(CC)Nc1cc(Nc2ccncn2)c2nnc(C3CC3)n2n1 [compound 177, 3-cyclopropyl-N6-(pentan-3-yl)-N8-(pyrimidin-4-yl)-[1,2,4]triazolo[4,3-b]pyridazine-6,8-diamine]
100 to 1000 nM | CC(C)c1nnc2c(NCc3ccccc3)cc(NCCCO)nn12 [compound 9, 3-[[8-(benzylamino)-3-isopropyl-[1,2,4]triazolo[4,3-b]pyridazin-6-yl]amino]propan-1-ol]
10 to 100 nM | CC[C@@H](CO)Nc1cc(NCc2ccc(-c3cccnc3)cc2)c2nnc(C(C)C)n2n1 [compound 104, (2S)-2-[[3-isopropyl-8-[[4-(3-pyridyl)phenyl]methylamino]-[1,2,4]triazolo[4,3-b]pyridazin-6-yl]amino]butan-1-ol]
100 to 1000 nM | CC(C)c1nnc2c(NCc3ccc(Br)cc3)cc(N[C@H](CO)[C@@H](C)O)nn12 [compound 106, (2R,3R)-2-[[8-[(4-bromophenyl)methylamino]-3-isopropyl-[1,2,4]triazolo[4,3-b]pyridazin-6-yl]amino]butane-1,3-diol]
10 to 100 nM | COCCCNc1cc(NCc2ccccc2)c2nnc(C(C)C)n2n1 [compound 10, N8-benzyl-3-isopropyl-N6-(3-methoxypropyl)-[1,2,4]triazolo[4,3-b]pyridazine-6,8-diamine]
10 to 100 nM | COCCCNc1cc(NCCCOC)c2nnc(C(F)(F)F)n2n1 [compound 111, N6,N8-bis(3-methoxypropyl)-3-(trifluoromethyl)-[1,2,4]triazolo[4,3-b]pyridazine-6,8-diamine]
100 to 1000 nM | COCCNc1cc(NCc2ccccc2)c2nnc(C(C)C)n2n1 [compound 12, N8-benzyl-3-isopropyl-N6-(2-methoxyethyl)-[1,2,4]triazolo[4,3-b]pyridazine-6,8-diamine]
< 1 nM | CCC(CC)Nc1cc(NC(=O)Cc2ccccc2)c2nnc(C(C)C)n2n1 [compound 98, N-[6-(1-ethylpropylamino)-3-isopropyl-[1,2,4]triazolo[4,3-b]pyridazin-8-yl]-2-phenyl-acetamide]

IC50 | SMILES
1 to 10 nM | CCC(CC)Nc1cc(NCc2cncnc2)c2nnc(C(C)C)n2n1 [compound 93, N6-(1-ethylpropyl)-3-isopropyl-N8-(pyrimidin-5-ylmethyl)-[1,2,4]triazolo[4,3-b]pyridazine-6,8-diamine]
< 1 nM | CCC(CC)CNc1cc(Nc2cccnn2)c2nnc(C(C)C)n2n1 [compound 147, N6-(2-ethylbutyl)-3-isopropyl-N8-(pyridazin-3-yl)-[1,2,4]triazolo[4,3-b]pyridazine-6,8-diamine]
100 to 1000 nM | CC(C)c1nnc2c(NCc3ccccc3)cc(NCCC(N)=O)nn12 [compound 25, 3-[[8-(benzylamino)-3-isopropyl-[1,2,4]triazolo[4,3-b]pyridazin-6-yl]amino]propanamide]
1 to 10 nM | COc1ccc(CNc2cc(NCc3ccccn3)c3nnc(C4CC4)n3n2)cc1 [compound 187, 3-cyclopropyl-N6-(4-methoxybenzyl)-N8-(pyridin-2-ylmethyl)-[1,2,4]triazolo[4,3-b]pyridazine-6,8-diamine]
1 to 10 nM | CCC(CC)Nc1cc(NCc2ccccn2)c2nnc(C3CC3)n2n1 [compound 62, 3-cyclopropyl-N6-(1-ethylpropyl)-N8-(2-pyridylmethyl)-[1,2,4]triazolo[4,3-b]pyridazine-6,8-diamine]
1 to 10 nM | CCC(CC)Nc1cc(Nc2cncc(OC)c2)c2nnc(C(C)C)n2n1 [compound 160, 3-isopropyl-N8-(5-methoxypyridin-3-yl)-N6-(pentan-3-yl)-[1,2,4]triazolo[4,3-b]pyridazine-6,8-diamine]
10 to 100 nM | CCC(CC)Nc1cc(NC2CCc3ccccc32)c2nnc(C(C)C)n2n1 (racemic) [compound 81, N6-(1-ethylpropyl)-N8-indan-1-yl-3-isopropyl-[1,2,4]triazolo[4,3-b]pyridazine-6,8-diamine]
100 to 1000 nM | COc1ccc(CN(C)c2cc(NCc3ccccn3)c3nnc(C4CC4)n3n2)cc1 [compound 188, 3-cyclopropyl-N6-(4-methoxybenzyl)-N6-methyl-N8-(pyridin-2-ylmethyl)-[1,2,4]triazolo[4,3-b]pyridazine-6,8-diamine]
10 to 100 nM | CCC(CC)Nc1cc(NCc2cc3ccccc3[nH]2)c2nnc(C(C)C)n2n1 [compound 78, N6-(1-ethylpropyl)-N8-(1H-indol-2-ylmethyl)-3-isopropyl-[1,2,4]triazolo[4,3-b]pyridazine-6,8-diamine]
1 to 10 nM | CCC(CC)Nc1cc(NCc2ccccc2O)c2nnc(C(C)C)n2n1 [compound 40, 2-[[[6-(1-ethylpropylamino)-3-isopropyl-[1,2,4]triazolo[4,3-b]pyridazin-8-yl]amino]methyl]phenol]
10 to 100 nM | CCC(CC)Nc1cc(NCc2ccccn2)c2nnc(CC(C)C)n2n1 [compound 69, N6-(1-ethylpropyl)-3-isobutyl-N8-(2-pyridylmethyl)-[1,2,4]triazolo[4,3-b]pyridazine-6,8-diamine]
10 to 100 nM | CC(C)c1nnc2c(NCc3ccccc3)cc(NCCCCO)nn12 [compound 13, 4-[[8-(benzylamino)-3-isopropyl-[1,2,4]triazolo[4,3-b]pyridazin-6-yl]amino]butan-1-ol]
< 1 nM | CCC(CC)Nc1cc(Nc2cccc(OC)n2)c2nnc(C3CC3)n2n1 [compound 183, 3-cyclopropyl-N8-(6-methoxypyridin-2-yl)-N6-(pentan-3-yl)-[1,2,4]triazolo[4,3-b]pyridazine-6,8-diamine]
10 to 100 nM | CCC(CC)Nc1cc(NCc2ccccn2)c2nnc(-c3ccncc3)n2n1 [compound 72, N6-(1-ethylpropyl)-3-(4-pyridyl)-N8-(2-pyridylmethyl)-[1,2,4]triazolo[4,3-b]pyridazine-6,8-diamine]
10 to 100 nM | CCC(CC)Nc1cc(NCCCc2ccccn2)c2nnc(C(C)C)n2n1 [compound 89, N6-(1-ethylpropyl)-3-isopropyl-N8-[3-(2-pyridyl)propyl]-[1,2,4]triazolo[4,3-b]pyridazine-6,8-diamine]
1 to 10 nM | c1ccc(CNc2cc(NCc3ccco3)nn3c(C4CC4)nnc23)nc1 [compound 208, 3-cyclopropyl-N6-(furan-2-ylmethyl)-N8-(pyridin-2-ylmethyl)-[1,2,4]triazolo[4,3-b]pyridazine-6,8-diamine]
100 to 1000 nM | c1ccc(CNc2cc(N3CCCCC3)nn3c(C4CC4)nnc23)nc1 [compound 207, 3-cyclopropyl-6-(1-piperidyl)-N-(2-pyridylmethyl)-[1,2,4]triazolo[4,3-b]pyridazin-8-amine]
< 1 nM | CCC(CC)Nc1cc(Nc2cccnc2OC)c2nnc(C(C)C)n2n1 [compound 158, 3-isopropyl-N8-(2-methoxypyridin-3-yl)-N6-(pentan-3-yl)-[1,2,4]triazolo[4,3-b]pyridazine-6,8-diamine]
